# Reference: US11330821B2, “Herbicidal compounds” (Syngenta Participations AG, priority 2015, dated 2022)
# What was measured:
# Format in all cases: in vivo
# Conditions in all cases: post-emergence spray, evaluated after 13 days
# [1] = system: Setaria faberi (SETFA); test: Post-emergence efficacy, Setaria faberi
# Experimental: (§1) B1 Post-Emergence Efficacy
# (§2) Seeds of a variety of test species are shown in standard soil in pots:—Solanum nigrum (SOLNI), Amaranthus retroflexus (AMARE), Setaria faberi (SETFA), Echinochloa crus-galli (ECHCG), Ipomoea hederacea (IPOHE), Lolium perenne (LOLPE). After 8 days cultivation (post-emergence) under controlled conditions in a glasshouse (at 24/16° C., day/night; 14 hours light; 65% humidity), the plants are sprayed with an aqueous spray solution derived from the formulation of the technical active ingredient in acetone/water (50:50) solution containing 0.5% Tween 20 (polyoxyethylene sorbitan monolaurate, CAS RN 9005-64-5). Compounds are applied at 1000 and 62.5 g/ha. The test plants are then grown in a glasshouse under controlled conditions in a glasshouse (at 24/16° C., day/night; 14 hours light; 65% humidity) and watered twice daily. After 13 days, the test is evaluated for the percentage damage caused to the plant. The biological activities are assessed on a five point scale (5=80-100%; 4=60-79%; 3=40-59%; 2=20-39%; 1=0-19%).
# [2] = system: Ipomoea hederacea (IPOHE); test: Post-emergence efficacy, Ipomoea hederacea
# Experimental: as §1, §2
# [3] = system: Lolium perenne (LOLPE); test: Post-emergence efficacy, Lolium perenne
# Experimental: as §1, §2
# [4] = system: Amaranthus retroflexus (AMARE); test: Post-emergence efficacy, Amaranthus retroflexus
# Experimental: as §1, §2
# [5] = system: Solanum nigrum (SOLNI); test: Post-emergence efficacy, Solanum nigrum
# Experimental: as §1, §2
# [6] = system: Echinochloa crus-galli (ECHCG); test: Post-emergence efficacy, Echinochloa crus-galli
# Experimental: as §1, §2
SMILES,SETFA percentage damage caused to the plant (five point scale) ([1]; 62.5 g/ha),SETFA percentage damage caused to the plant (five point scale) ([1]; 1000 g/ha),IPOHE percentage damage caused to the plant (five point scale) ([2]; 62.5 g/ha),IPOHE percentage damage caused to the plant (five point scale) ([2]; 1000 g/ha),LOLPE percentage damage caused to the plant (five point scale) ([3]; 62.5 g/ha),LOLPE percentage damage caused to the plant (five point scale) ([3]; 1000 g/ha),AMARE percentage damage caused to the plant (five point scale) ([4]; 62.5 g/ha),AMARE percentage damage caused to the plant (five point scale) ([4]; 1000 g/ha),SOLNI percentage damage caused to the plant (five point scale) ([5]; 62.5 g/ha),SOLNI percentage damage caused to the plant (five point scale) ([5]; 1000 g/ha),ECHCG percentage damage caused to the plant (five point scale) ([6]; 62.5 g/ha),ECHCG percentage damage caused to the plant (five point scale) ([6]; 1000 g/ha)
Cc1csc(COc2c(Cl)ccc(F)c2-c2c(O)c(C)nn(C)c2=O)n1 [Compound 1.34],4 (4=60-79%),5 (5=80-100%),5 (5=80-100%),5 (5=80-100%),3 (3=40-59%),4 (4=60-79%),4 (4=60-79%),5 (5=80-100%),5 (5=80-100%),5 (5=80-100%),4 (4=60-79%),5 (5=80-100%)
Cc1nn(C)c(=O)c(-c2c(Cl)c(Cl)cc(Cl)c2OCc2cnc(Cl)s2)c1O [Compound 5.01],2 (2=20-39%),5 (5=80-100%),5 (5=80-100%),5 (5=80-100%),2 (2=20-39%),5 (5=80-100%),3 (3=40-59%),5 (5=80-100%),5 (5=80-100%),5 (5=80-100%),2 (2=20-39%),5 (5=80-100%)
Cc1nn(C)c(=O)c(-c2c(Cl)ccc(Cl)c2OCc2ccnc(Cl)c2)c1O [Compound 1.14],4 (4=60-79%),5 (5=80-100%),5 (5=80-100%),5 (5=80-100%),3 (3=40-59%),5 (5=80-100%),5 (5=80-100%),5 (5=80-100%),4 (4=60-79%),5 (5=80-100%),4 (4=60-79%),5 (5=80-100%)
Cc1csc(COc2c(Cl)ccc(Cl)c2-c2c(O)c(C)nn(C)c2=O)n1 [Compound 1.13],4 (4=60-79%),5 (5=80-100%),4 (4=60-79%),5 (5=80-100%),2 (2=20-39%),4 (4=60-79%),3 (3=40-59%),4 (4=60-79%),4 (4=60-79%),5 (5=80-100%),3 (3=40-59%),5 (5=80-100%)
Cc1nc(COc2c(Cl)ccc(Cl)c2-c2c(O)c(C)nn(C)c2=O)cs1 [Compound 1.12],2 (2=20-39%),5 (5=80-100%),4 (4=60-79%),5 (5=80-100%),1 (1=0-19%),4 (4=60-79%),3 (3=40-59%),5 (5=80-100%),3 (3=40-59%),5 (5=80-100%),2 (2=20-39%),4 (4=60-79%)
Cc1nn(C)c(=O)c(-c2c(Cl)ccc(Cl)c2OCc2cccnc2)c1O [Compound 1.02],3 (3=40-59%),5 (5=80-100%),3 (3=40-59%),5 (5=80-100%),2 (2=20-39%),4 (4=60-79%),4 (4=60-79%),4 (4=60-79%),4 (4=60-79%),5 (5=80-100%),3 (3=40-59%),4 (4=60-79%)
Cc1nn(C)c(=O)c(-c2c(Cl)ccc(Cl)c2OCc2nccs2)c1O [Compound 1.04],5 (5=80-100%),5 (5=80-100%),5 (5=80-100%),5 (5=80-100%),3 (3=40-59%),5 (5=80-100%),5 (5=80-100%),5 (5=80-100%),5 (5=80-100%),5 (5=80-100%),4 (4=60-79%),5 (5=80-100%)
Cc1nn(C)c(=O)c(-c2c(F)ccc(Cl)c2OCc2cccnc2)c1O [Compound 1.23],2 (2=20-39%),5 (5=80-100%),4 (4=60-79%),5 (5=80-100%),2 (2=20-39%),5 (5=80-100%),4 (4=60-79%),5 (5=80-100%),4 (4=60-79%),5 (5=80-100%),2 (2=20-39%),5 (5=80-100%)
Cc1nn(C)c(=O)c(-c2c(F)ccc(Cl)c2OCc2nccs2)c1O [Compound 1.25],5 (5=80-100%),5 (5=80-100%),5 (5=80-100%),5 (5=80-100%),4 (4=60-79%),5 (5=80-100%),5 (5=80-100%),5 (5=80-100%),5 (5=80-100%),5 (5=80-100%),4 (4=60-79%),5 (5=80-100%)
Cc1nc(COc2c(Cl)ccc(F)c2-c2c(O)c(C)nn(C)c2=O)cs1 [Compound 1.33],2 (2=20-39%),5 (5=80-100%),4 (4=60-79%),5 (5=80-100%),2 (2=20-39%),4 (4=60-79%),3 (3=40-59%),5 (5=80-100%),4 (4=60-79%),5 (5=80-100%),3 (3=40-59%),4 (4=60-79%)
Cc1nn(C)c(=O)c(-c2c(F)ccc(Cl)c2OCc2ccncc2)c1O [Compound 1.24],1 (1=0-19%),5 (5=80-100%),4 (4=60-79%),5 (5=80-100%),1 (1=0-19%),5 (5=80-100%),2 (2=20-39%),5 (5=80-100%),4 (4=60-79%),5 (5=80-100%),3 (3=40-59%),5 (5=80-100%)
